Article PMC10120551, “Novel Glu-based pyrazolo[3,4-d]pyrimidine analogues: design, synthesis and biological evaluation as DHFR and TS dual inhibitors” (Journal of Enzyme Inhibition and Medicinal Chemistry, 2023)

Legend:
[1] = test system: HT29; details: HT29, Colon cancer; five-dose 0.01–100 µM
[2] = test system: UACC-62; details: UACC-62, Melanoma; five-dose 0.01–100 µM
[3] = test system: UO-31; details: UO-31, Renal cancer; five-dose 0.01–100 µM
[4] = test system: Renal cancer subpanel; assay: NCI five-dose screen, subpanel MG-MID; format: cell-based, human
Protocol: (§1) (Figures S53–S56 in Supporting Information). This assay evaluates GI50, TGI, and LC50 parameters, as cited in Table 1. Their values correspondingly represent the GI level, cytostatic impact, and cytotoxicity parameter. Furthermore, based on the GI50 values, the mean graph midpoints (MG-MID) for both full NCI 59 cell panel and subpanel cancer cell lines were evaluated, affording a median potency parameter for the examined compound 6i, as depicted in Table 2.
(§2) Moreover, the selectivity index (SI) of the most efficient analogue 6i was calculated from the division of full-panel MG-MID by subpanel MG-MID. A value greater than 6 implies high selectivity, whereas a ratio from 3 to 6 denotes moderate selectivity. Otherwise, the compound is referred to as non-selective.[24] […] Therefore, the outstanding anti-cancer profile of compound 6i against the herein examined NCI-59 cell panels inspired us to explore its mechanism of action further.
(§3) The designed analogues were submitted to NCI-Chemotherapeutic Agents Repository (MD, USA) for screening on a panel of 59 cancer cell lines. All compounds were initially examined at 10 µM concentration (Single-Dose Screen), and then the most efficient analogue 6i was screened further at 0.01–100 µM (Five-Dose Screen). The screening procedures were performed according to NCI-Drug Evaluation Branch protocol using SRB protein assay, as described previously[21]^,[66]. The experimental procedures were detailed in the Supporting Information.

[5] = test system: Prostate cancer subpanel; assay: NCI five-dose screen, subpanel MG-MID; format: cell-based, human
Protocol: as §1, §2, §3

[6] = test system: Breast cancer subpanel; assay: NCI five-dose screen, subpanel MG-MID; format: cell-based, human
Protocol: as §1, §2, §3

[7] = test system: Non-small cell lung cancer subpanel; assay: NCI five-dose screen, subpanel MG-MID; format: cell-based, human
Protocol: as §1, §2, §3

[8] = test system: Colon cancer subpanel; assay: NCI five-dose screen, subpanel MG-MID; format: cell-based, human
Protocol: as §1, §2, §3

[9] = test system: HL-60(TB); details: Leukaemia, five-dose 0.01–100 µM
[10] = test system: KM12; assay: cells; details: Homo sapiens
[11] = test system: LOX IMVI; assay: cells; details: Homo sapiens
[12] = test system: MDA-MB-435; assay: cells; details: Homo sapiens
[13] = test system: T-47D; assay: cells; details: Homo sapiens, T47D
[14] = test system: ACHN; details: Renal cancer, five-dose 0.01–100 µM
[15] = test system: HSF (Normal human skin fibroblast) cells; assay: MTT cytotoxicity assay; format: cell-based; details: HSF normal fibroblasts, 48 h, mean ± SD from triplicates
Protocol: The results hinted that 6i elicited stronger cytotoxicity and higher selectivity for cancer than normal cells.
The MTT assay was carried out according to the procedure cited earlier. Briefly, in a 96-well plate, either cancer or normal cells were seeded (10^6 cells/cm^2; 100 µL/well) and incubated for 12 h at 37 °C and CO2 (5%), then serial dilutions of compound 6i were added and incubated for 48 h using DMSO control (0.5% V/V). MTT (3-(4,5-dimethylthiazoyl)-2,5-diphenyl-tetrazolium bromide; Cat. No. M-5655) 5 mg/mL was then added. After 4 h incubation, the formed MTT formazan crystals were solubilised by 10% Triton X-100 plus 0.1 N HCl in anhydrous isopropanol. The absorbance was read using a Bioline plate reader at λ570–630 nm[25–29]. The selectivity of 6i towards HSF cells was also determined as follows[30]^,[31]: SI=IC50HSF cells/IC50of cancer cells

[16] = test system: MCF7; assay: cells; details: Homo sapiens
[17] = test system: U251; details: U251, CNS cancer; five-dose 0.01–100 µM
[18] = test system: EKVX; assay: cells; details: Homo sapiens
[19] = test system: COLO 205; details: COLO 205, Colon cancer; five-dose 0.01–100 µM
[20] = test system: MOLT-4; details: MOLT-4, Leukaemia; five-dose 0.01–100 µM
[21] = test system: UACC-257; assay: cells; details: Homo sapiens
[22] = test system: SK-MEL-28; details: SK-MEL-28, Melanoma; five-dose 0.01–100 µM
[23] = test system: A498; assay: cells; details: Homo sapiens
[24] = test system: HCC-2998; details: HCC-2998, Colon cancer; five-dose 0.01–100 µM
[25] = test system: M14; assay: cells; details: Homo sapiens
[26] = test system: DU-145; details: DU-145, Prostate cancer; five-dose 0.01–100 µM
[27] = test system: SK-MEL-2; assay: cells; details: Homo sapiens

CCOC(=O)CC[C@H](NC(=O)c1ccc(NC(=O)Cn2cnc3c(c(C)nn3-c3ccc(Br)cc3)c2=O)cc1)C(=O)OCC [Compound 6i]
TGI [1]: 71.7 µM
TGI [2]: 32.1 µM
TGI [3]: 55.9 µM
MG-MID ([4]; Renal cancer subpanel, based on GI50): 19.19 µM
Selectivity index ([4]; Renal cancer, full-panel MG-MID / subpanel MG-MID): 1.06
MG-MID ([5]; Prostate cancer subpanel, based on GI50): 6.63 µM
Selectivity index ([5]; Prostate cancer, full-panel MG-MID / subpanel MG-MID): 3.08
MG-MID ([6]; Breast cancer subpanel, based on GI50): 15.29 µM
Selectivity index ([6]; Breast cancer, full-panel MG-MID / subpanel MG-MID): 1.33
MG-MID ([7]; Non-small cell lung cancer subpanel, based on GI50): 10.62 µM
Selectivity index ([7]; Non-small cell lung cancer, full-panel MG-MID / subpanel MG-MID): 1.92
MG-MID ([8]; Colon cancer subpanel, based on GI50): 18.34 µM
Selectivity index ([8]; Colon cancer, full-panel MG-MID / subpanel MG-MID): 1.11
TGI [9]: >100 µM
GI50 ([10]; KM12): 16.1 µM
CC50 ([10]; KM12, read-out: LC50): > 100 µM
GI50 [11]: 5.3 µM
CC50 ([11]; read-out: LC50): 58.4 µM
GI50 ([12]; MDA-MB-435): 12.2 µM
CC50 ([12]; MDA-MB-435, read-out: LC50): 96.1 µM
GI50 [13]: 45.6 µM
CC50 ([13]; read-out: LC50): > 100 µM
TGI [14]: 34.3 µM
IC50 [15]: 48.5 ± 2.43 µM
GI50 ([16]; MCF7): 3.93 µM
CC50 ([16]; MCF7, read-out: LC50): 59.4 µM
TGI [17]: >100 µM
GI50 [18]: 10.4 µM
CC50 ([18]; read-out: LC50): 71.7 µM
TGI [19]: 36.7 µM
TGI [20]: >100 µM
GI50 ([21]; UACC-257): 31.5 µM
CC50 ([21]; UACC-257, read-out: LC50): > 100 µM
TGI [22]: 22.5 µM
GI50 ([23]; A498): 24.9 µM
CC50 ([23]; A498, read-out: LC50): 93 µM
TGI [24]: >100 µM
GI50 ([25]; M14): > 100 µM
CC50 ([25]; M14, read-out: LC50): > 100 µM
TGI [26]: 28.8 µM
GI50 ([27]; SK-MEL-2): 27.6 µM
CC50 ([27]; SK-MEL-2, read-out: LC50): > 100 µM
